Series [1] can be described thus: MTT cytotoxicity assay against WI-38 cells. The format is cell-based, human. Conditions: human, WI-38 lung fibroblast cells; for viability at 48 h, 4 µg/mL: 4 µg/mL (log conc. 0.602); for viability at 48 h, 16 µg/mL: 16 µg/mL (log conc. 1.204); for viability at 48 h, 63 µg/mL: 63 µg/mL (log conc. 1.799); for viability at 48 h, 250 µg/mL: 250 µg/mL (log conc. 2.398); for viability at 48 h, 1000 µg/mL: 1000 µg/mL (log conc. 3); for IC50 at 48 h: MTT. How it is done:
(§1) Based on the promising dual inhibitory activity of this class of compounds, we next evaluated the cytotoxicity of compounds 5a and 7a against human lung fibroblast cell line WI-38 in order to gain insights into the toxicity of this class of compounds utilizing the MTT assay. In this regard, lung fibroblast cells were cultured and treated with compounds 5a and 7a for 48 h at different concentrations (1000, 250, 63, 16, and 4 µg/mL). After the cells were washed, they were treated with MTT solution and the absorption was assessed using an ELISA reader at 570 nm. As a pharmacological reference drug, Celecoxib, a well-known anti-inflammatory agent, was utilized.
(§2) The cytotoxicity of compounds 5a and 7a was assessed toward the human lung fibroblast WI-38 cell line (Sigma-Aldrich, St. Louis, MO, USA, product number 90020107) using MTT assay. The MTT test assay was performed in accordance with the previously stated procedure. MTT (3-(4,5-dimethylthiazol-2-yl)-2,5-diphenyl tetrazolium bromide; Sigma catalog no. M2128) was dissolved in PBS at 5 mg/mL and processed to eliminate the insoluble residues. Briefly, cells (10^5 cells/well) were treated for 48 h at 37 °C with compounds 5a and 7a at varied doses (1000, 250, 63, 16, and 4 µg/mL, DMSO stock solutions) in a 5% CO2 atmosphere. In our assessment, celecoxib, an inhibitor of cyclooxygenase 2, was employed as a standard reference drug. Following cell washing, MTT solution (180 µL/well) was applied to the cells and incubated at 37 °C for 4 h with shaking, and the absorbance was measured using an ELISA reader at 570 nm.

Series [2] concerns human lung fibroblast WI-38 cell line. Briefly: MTT cytotoxicity assay against WI-38 cells. To be noted: MTT, 48 h. The format is cell-based. How it is done: as §1, §2

Structures are written as SMILES. ≈ marks a conversion by molar mass, not a printed value.

In series [1], `COC(=O)CCN1C(=S)N(N=C(C)c2ccccc2O)C(=O)C1=Cc1ccccc1O` [Compound 5a, Methyl [5-(2-hydroxybenzylidene)-4-oxo-3-(2-hydroxyphenylethylidene)amino-2-thioxoimidazolidin-1-yl] propionate] displayed a viability at 48 h, 4 µg/mL of 69%; a viability at 48 h, 16 µg/mL of 59.8%; a viability at 48 h, 63 µg/mL of 52.9%; a viability at 48 h, 250 µg/mL of 44.1%. In addition, in series [1], the viability at 48 h, 1000 µg/mL came to 34.6% and 88.5 µg/mL (≈ 201 µM) corresponded to half-maximal inhibition (IC50 at 48 h). In series [2], the “WI-38 cytotoxicity IC50” value is 88.538 µg/mL.

In series [1], `COC(=O)CCN1C(=S)N(N=C(C)c2ccccc2O)C(=O)C1=Cc1ccccc1OC(C)=O` [Compound 7a, Methyl [5-(2-acetoxybenzylidene)-4-oxo-3-(2-hydroxyphenylethylidene)amino-2-thioxoimidazolidin-1-yl] propionate] showed a viability at 48 h, 4 µg/mL of 73%; a viability at 48 h, 16 µg/mL of 60.6%; a viability at 48 h, 63 µg/mL of 53.4%; a viability at 48 h, 250 µg/mL of 44.1%. In series [1], this compound gave a viability at 48 h, 1000 µg/mL of 36.6% and an IC50 at 48 h of 109 µg/mL (≈ 227 µM).

The values above are taken from PMC9785777, “Antidiabetic Potential of Novel 1,3,5-Trisubstituted-2-Thioxoimidazloidin-4-One Analogues: Insights into α-Glucosidase, α-Amylase, and Antioxidant Activities” (Pharmaceuticals, 2022).
